The subject of series [1] is serum osteocalcin. The series can be described thus: Osteocalcin response to L-carnitine in aged mice. Format: in vivo, mouse (BALB/c). As for the experimental part: (§1) The present invention is further explained by the following examples which should not be construed by way of limiting the scope of the present invention. In the following examples, serum carnitine levels were determined by the method of R. Parvin et al., Anal. Biochem., vol. 79 (1979) pp. 190-201. Serum IGF-1 concentrations were measured by immunoradiometric assay, for example, by IRMA Kit available from Diagnostic Systems Laboratories, Inc., Webster, Texas. Serum osteocalcin levels were measured according to the method of Grunaberg et al., Meth. Enzymology, vol 107 (1984) 516, and which is embodied in an osteocalcin kit available from Biomedical Technologies, Inc., Stoughton, Mass. All mice used in the animal studies were BALB/c strain which is commercially available.
Forty aged mice were separated into two groups. After an initial acclimatizing period of one week, one group was fed a diet with L-carnitine supplementation for six weeks and the other was fed normal, unsupplemented feed (control). […] The average daily food for each mouse was determined by weighing the food initially placed in the food bin and weighing the remaining food. […] Mouse blood was sampled prior to beginning of the trial (pretreatment), at the end of three weeks, and at six weeks (posttreatment), and was evaluated for serum osteocalcin and carnitine levels.

Series [2] can be described thus: Serum carnitine levels in aged mice fed L-carnitine. The class given is in vivo, mouse (BALB/c). Particulars: mouse, serum, po, 50 mg/kg/day, 50 mg/kg/day oral, six weeks. As for the experimental part:
as §1
Forty aged mice were separated into two groups. After an initial acclimatizing period of one week, one group was fed a diet with L-carnitine supplementation for six weeks and the other was fed normal, unsupplemented feed (control). Each mouse in the test group was fed a daily oral dose of L-carnitine of about 50 mg/kg of body weight. The average daily food for each mouse was determined by weighing the food initially placed in the food bin and weighing the remaining food. The feed was supplemented with L-carnitine so that each mouse in the test group consumed the test dose (50 mg/kg) of L-carnitine each day. Mouse blood was sampled prior to beginning of the trial (pretreatment), at the end of three weeks, and at six weeks (posttreatment), and was evaluated for serum osteocalcin and carnitine levels.

The nature of series [3]: Serum carnitine after oral L-carnitine, double-blind study in patients over 60 (Example 5). Format: in vivo, human. Particulars: human, serum, po, 2 g/day. As for the experimental part:
as §1
(§2) Nineteen patients (over age 60) were enrolled in a preliminary double-blindstudy to establish the effect of oral L-carnitine treatment on serum IGF-1 and osteocalcin levels. Baseline, i.e., pretreatment, levels of serum IGF-1, osteocalcin and carnitine were measured by known methods. The patients were divided into two groups, control (n=9; subjects 001-009 in Table 5 below) and treatment (n=10; subjects 010-019 in Table 5 below). The treatment group received a daily dosage of 2 g of L-carnitine orally, self-administered, in four separate doses of two 250 mg tablets taken four times per day, for twelve weeks. The control group were given placebo, e.g., simple sugar. Serum samples were drawn every four weeks, and serum carnitine, IGF-1 and osteocalcin were determined.

The test system of another series is serum carnitine. The description is as above. Particulars: individual subjects 010-019, 2 g/day oral. Format: in vivo, human. As for the experimental part: as §1, §2
The subject of series [4] is serum osteocalcin. The series can be described thus: Serum osteocalcin after oral L-carnitine, double-blind study in patients over 60 (Example 5). Format: in vivo, human. Particulars: for Osteocalcin: individual subjects 010-019, 2 g/day oral; for average serum osteocalcin: treatment group average. Here is the method:
as §1, §2

Molecules are shown by their SMILES. Values joined by “and” are separate entries in the source; they are usually repeats but may differ in a detail not shown here. Identical values can stand only once. Like-named read-outs stand apart in the source and are kept apart here.

As to `C[N+](C)(C)C[C@H](O)CC(=O)[O-]` [L-carnitine], the Osteocalcin in the series with serum osteocalcin [1] (aged mice (18 months), 50 mg/kg/day oral in feed, six weeks) was 29.6 ± 3.6 ng/mL; with serum osteocalcin [4] (4 weeks), 11.8 ng/mL and 13.6 ng/mL and 7.4 ng/mL and 11.5 ng/mL and 7.9 ng/mL and 10.4 ng/mL and 11.6 ng/mL and 3.6 ng/mL and 5.9 ng/mL; in the series with serum osteocalcin [4] (8 weeks) it was 11.9 ng/mL and 10.2 ng/mL and 7.0 ng/mL and 10.8 ng/mL and 9.0 ng/mL and 11.0 ng/mL and 2.4 ng/mL and 4.9 ng/mL; in the series on serum osteocalcin [4] (12 weeks), 9.3 ng/mL and 11.8 ng/mL and 8.7 ng/mL and 7.0 ng/mL and 9.1 ng/mL and 11.4 ng/mL and 6.5 ng/mL. For the same compound, the “significance of difference in osteocalcin, treated vs control (p, student's t test)” value in the series on serum osteocalcin [1] (aged mice, 50 mg/kg/day) was not above 0.05. Also, the concentration at 1008 h in series [2] (read-out: Serum Carnitine, Free) was 57 ± 9.7 µM; in series [2] (read-out: Serum Carnitine, Total), 80.2 ± 9.5 µM. The concentration at 1344 h came to 65.4 µM in series [3] (individual subjects 010-019, 2 g/day oral, 8 weeks, read-out: Serum carnitine, Free); 88 µM in series [3] (individual subjects 010-019, 2 g/day oral, 8 weeks, read-out: Serum carnitine, Total); 75.6 µM in series [3] (treatment group average, eight weeks, read-out: average total carnitine). Moreover, the concentration at 2016 h in series [3] (individual subjects 010-019, 2 g/day oral, 12 weeks, read-out: Serum carnitine, Free) amounted to 72.6 µM; in series [3] (individual subjects 010-019, 2 g/day oral, 12 weeks, read-out: Serum carnitine, Total), 101 µM; in series [3] (treatment group average, twelve weeks, read-out: average total carnitine) it was 81.5 µM. In addition, the concentration at 672 h in series [3] (treatment group average, four weeks, read-out: average total carnitine) was 78.4 µM. The concentration was 54.4 µM and 61.6 µM and 36.6 µM and 66.6 µM and 67.4 µM and 52 µM and 67.2 µM and 40.4 µM and 61.2 µM and 85 µM in the series with serum carnitine (4 weeks, 40320 min, read-out: Serum carnitine, Free); 71.6 µM and 72.5 µM and 52.4 µM and 80.3 µM and 120 µM and 67 µM and 84.4 µM and 54.3 µM and 73 µM and 108 µM in the series with serum carnitine (4 weeks, 40320 min, read-out: Serum carnitine, Total); 58.6 µM and 52.6 µM and 65.2 µM and 74.6 µM and 57 µM and 67.4 µM and 39.4 µM and 61.2 µM with serum carnitine (8 weeks, 80640 min, read-out: Serum carnitine, Free); 76.6 µM and 64.8 µM and 72.5 µM and 91.7 µM and 67.9 µM and 83.4 µM and 51.5 µM and 83.9 µM with serum carnitine (8 weeks, 80640 min, read-out: Serum carnitine, Total); 61 µM and 49.6 µM and 70 µM and 55.8 µM and 69.6 µM in the series on serum carnitine (12 weeks, 120960 min, read-out: Serum carnitine, Free); 79.3 µM and 62 µM and 75.7 µM and 70.2 µM and 94.4 µM in the series on serum carnitine (12 weeks, 120960 min, read-out: Serum carnitine, Total). For the same compound, the “osteocalcin vs control, significance” value in the series on serum osteocalcin [4] (4, 8 and 12 weeks) is reported as “just below significance”. In addition, the average serum osteocalcin in the series with serum osteocalcin [4] (eight weeks) is 8.4 ng/mL; in the series with serum osteocalcin [4] (four weeks), 9.2 ng/mL; in the series with serum osteocalcin [4] (twelve weeks), 9.1 ng/mL.
